According to US9782346B2, “Biodegradable ocular implant” (Nanyang Technological University, priority 2010, dated 2017):

How the values were obtained:
[1] = Sustained drug release from PLC films / sandwich constructions; format: physicochemical
rabbit eyes = settings: in vivo
Experimental: We obtained approval from the SingHealth Institute Animal Care and Use Committee (IACUC Singhealth Approval Number 2009/SHS/478) and all procedures were performed in accordance with the ARVO Statement for the Use of Animals in Ophthalmic and Vision Research. Nine New Zealand white rabbits (18 eyes) were used aged 4-6 months old with a weight range of 2-2.5 kg each. Each rabbit was anesthetized with intraperitoneal injection of ketamine hydrochloride (35-50 mg/kg) and Xylazil (5-10 mg/kg). After the animal had been adequately anaesthetized, the eye was cleaned with povidone-iodine (10%) and draped with sterile cloth. […]
Visual inspection of the operated eyes was conducted daily following surgery. […] All clinical and ocular observations were recorded on a chart. The test animals were also monitored for any gross changes such as eye discharge, squinting and, ocular discomfort. […]
Anterior segment photographs and anterior segment optical coherence tomography (AS-OCT, Visante OCT, Carl Zeiss Meditec Inc., Germany) of the implanted eyes was performed at monthly intervals. […] The site of conjunctival elevation from the microfilm was determined by the location of a light reflex over the conjunctiva during image acquisition. In cases where the light reflex was absent, the observer manually assessed the surface of the microfilm to select a radius that contained elevation. […]

## CC(C)OC(=O)CCC/C=C\C[C@@H]1[C@@H](CC[C@@H](O)CCc2ccccc2)[C@H](O)C[C@@H]1O [Latanoprost]
[1]; from PLC films
  Duration of delivery: 10 days

## C[C@]12C=CC(=O)C=C1CC[C@@H]1[C@@H]2[C@@H](O)C[C@@]2(C)[C@H]1CC[C@]2(O)C(=O)CO [Prednisolone]
[1]; from PLC (70/30 copolymer of PLA and PCL)
  Duration of controlled release: 100 days

## CCCC(CCC)C(=O)O [valproic acid]
[1]; 1% and 2% sandwich constructions (multi-layered implant)
  Duration of controlled release: 20 days

## Poly(d,l-lactide-co-e-caprolactone) [PLC70/30]
Rabbit eyes
  mean increase in vascularity grade: 15±0.6%
  mean percent increase in ocular score: 15±0.6%
